Data published in US11168058B2, “Manufacture of a crystalline pharmaceutical product” (ORION CORPORATION, priority 2017, dated 2021).

Legend:
Format in all cases: physicochemical
[1] = Specific surface area (SSA) by three-point nitrogen adsorption (BET), TriStar 3000; conditions: for SSA: Table 1, batch A; for SSA / Specific surface area: crystalline rounded particles before/after milling; for Specific surface area: Table 2, batch B
Experimental: The specific surface area (SSA) of crystalline particles of compound (I) can be analyzed using the three-point nitrogen adsorption technique based on the Brunauer, Emmett and Teller (BET) theory, for example using TriStar 3000 automated gas adsorption analyzer, (Micromeritics, Inc.). The samples are suitably vacuum dried for 20 hours at 40° C. The volumetric method can be used at the relative pressure range of 0.1-0.3 P/P0.
(§1) The specific surface area (SSA) and particle size distribution (PSD) were determined for two batches (A and B) of crystalline rounded particles of compound (I) prepared according to the present invention. The particles of the two batches were then milled followed by the determination of SSA and PSD.
The specific surface area was measured using the three-point nitrogen adsorption technique based on the Brunauer, Emmett and Teller (BET) theory using TriStar 3000 automated gas adsorption analyzer (Micromeritics, Inc.). The samples were vacuum dried for 20 hours in 40° C. The volumetric method was applied at the relative pressure range 0.1-0.3 P/P0.

[2] = Particle size distribution by laser light diffraction (Beckman Coulter LS13320, dry powder); conditions: for Volume particle size, Dv10 / Volume particle size, Dv50 / Volume particle size, Dv90: before/after milling
Experimental: The particle size distribution of crystalline particles of compound (I) can be analyzed by laser light diffraction, for example using Beckman Coulter LS13320 laser diffraction particle size analyzer equipped with Tornado Dry Powder System using air as dispersion medium with measurement pressure 24″H2O±2″H2O, sample amount 10 ml, system controlled target 5% for obscuration and applying Fraunhofer optical model.
The parameters considered are the volumetric diameters in μm of the 10th, 50th and 90th percentiles of the particles, expressed as Dv10, Dv50 and Dv90 respectively, which are determined by assuming that the particles have a geometric shape equivalent to a sphere.
The particle size distribution of the crystalline rounded particles of compound (I) prepared according to the present invention was determined by laser light diffraction. The determination was carried out by using Beckman Coulter LS13320 laser diffraction particle size analyzer equipped with Tornado Dry Powder System using air as dispersion medium with measurement pressure 24″H2O±2″H2O, sample amount 10 ml, system controlled target 5% for obscuration and applying Fraunhofer optical model. According to the analysis, Dv10 value of the particles is 359 μm, Dv50 is 632 μm and Dv90 is 925 μm.
as §1

[3] = Solubility in water (statement)
[4] = Example 4, crystalline rounded particles, FIG. 1

SSA [1] [m^2/g]	Volume particle size, Dv10 ([2]; Table 1, batch A) [μm]	Volume particle size, Dv50 ([2]; Table 1, batch A) [μm]	Volume particle size, Dv90 ([2]; Table 1, batch A) [μm]	Specific surface area [1] [m^2/g]	Volume particle size, Dv10 ([2]; Table 2, batch B) [μm]	Volume particle size, Dv50 ([2]; Table 2, batch B) [μm]	Volume particle size, Dv90 ([2]; Table 2, batch B) [μm]	Structure (SMILES)	also measured
14	2	36	218					CC(O)c1cc(C(=O)N[C@@H](C)Cn2ccc(-c3ccc(C#N)c(Cl)c3)n2)n[nH]1 (stereo partly drawn) [A (milled)]	
13	171	407	625					CC(O)c1cc(C(=O)N[C@@H](C)Cn2ccc(-c3ccc(C#N)c(Cl)c3)n2)n[nH]1 (stereo partly drawn) [A (unmilled)]	
				13	3	96	292	CC(O)c1cc(C(=O)N[C@@H](C)Cn2ccc(-c3ccc(C#N)c(Cl)c3)n2)n[nH]1 (stereo partly drawn) [B (milled)]	
				12	176	389	826	CC(O)c1cc(C(=O)N[C@@H](C)Cn2ccc(-c3ccc(C#N)c(Cl)c3)n2)n[nH]1 (stereo partly drawn) [B (unmilled)]	
								CC(O)c1cc(C(=O)N[C@@H](C)Cn2ccc(-c3ccc(C#N)c(Cl)c3)n2)n[nH]1 (stereo partly drawn) [compound (I), N—((S)-1-(3-(3-chloro-4-cyanophenyl)-1H-pyrazol-1-yl)-propan-2-yl)-5-(1-hydroxyethyl)-1H-pyrazole-3-carboxamide]	Change of specific surface area (SSA) on milling to reduced particle size ([1]; batches A and B, milled vs unmilled): did not significantly change; Solubility in water [3]: poorly soluble in water; Dv10 [2, 4]: 359 μm; Dv50 [2, 4]: 632 μm; Dv90 [2, 4]: 925 μm
